Test results from ChEMBL document CHEMBL3044672, “N9- and N7-(Chloromethyl Phenymethyl)Chloropurine Derivatives from , '-Dichloroxylenes: Synthesis and Anticancer Activity” (2005).

How the values were obtained:
Format in all cases: functional
SK-OV-3 = experiment: Cytotoxicity against Homo sapiens (human) SKOV3 cells after 48 hr by sulforhodamine B assay; details: SK-OV-3, 48 h
OVCAR-5 = experiment: Cytotoxicity against Homo sapiens (human) OVCAR5 cells after 48 hr by sulforhodamine B assay; details: OVCAR-5, 48 h
OVCAR-4 = experiment: Cytotoxicity against Homo sapiens (human) OVCAR4 cells after 48 hr by sulforhodamine B assay; details: OVCAR-4, 48 h
IGROV-1 = experiment: Cytotoxicity against Homo sapiens (human) IGROV1 cells after 48 hr by sulforhodamine B assay; details: IGROV-1, 48 h
OVCAR-3 = experiment: Cytotoxicity against Homo sapiens (human) OVCAR3 cells after 48 hr by sulforhodamine B assay; details: OVCAR-3, 48 h
SK-MEL-5 = experiment: Cytotoxicity against Homo sapiens (human) SK-MEL-5 cells after 48 hr by sulforhodamine B assay; details: SK-MEL-5, 48 h
SK-MEL-2 = experiment: Cytotoxicity against Homo sapiens (human) SK-MEL-2 cells after 48 hr by sulforhodamine B assay; details: SK-MEL-2, 48 h
SNB-75 = experiment: Cytotoxicity against Homo sapiens (human) SNB75 cells after 48 hr by sulforhodamine B assay; details: SNB-75, 48 h
T47D = experiment: Cytotoxicity against Homo sapiens (human) T47D cells after 48 hr by sulforhodamine B assay
MDA-MB-435 = experiment: Cytotoxicity against Homo sapiens (human) MDA-MB-435 cells after 48 hr by sulforhodamine B assay; details: MDA-MB-435, 48 h
Hs-578T = experiment: Cytotoxicity against Homo sapiens (human) Hs 578T cells after 48 hr by sulforhodamine B assay
MDA-MB-231 = experiment: Cytotoxicity against Homo sapiens (human) MDA-MB-231 cells after 48 hr by sulforhodamine B assay; details: MDA-MB-231, 48 h
DU-145 = experiment: Cytotoxicity against Homo sapiens (human) DU145 cells after 48 hr by sulforhodamine B assay; details: DU-145, 48 h
MCF7 = experiment: Cytotoxicity against Homo sapiens (human) MCF7 cells after 48 hr by sulforhodamine B assay; details: MCF7, 48 h
PC-3 = experiment: Cytotoxicity against Homo sapiens (human) PC3 cells after 48 hr by sulforhodamine B assay; details: PC-3, 48 h
TK-10 = experiment: Cytotoxicity against Homo sapiens (human) TK10 cells after 48 hr by sulforhodamine B assay; details: TK-10, 48 h
RXF 393 = experiment: Cytotoxicity against Homo sapiens (human) RXF393 cells after 48 hr by sulforhodamine B assay; details: RXF 393, 48 h
SF-295 = experiment: Cytotoxicity against Homo sapiens (human) SF295 cells after 48 hr by sulforhodamine B assay; details: SF-295, 48 h
SW-620 = experiment: Cytotoxicity against Homo sapiens (human) SW620 cells after 48 hr by sulforhodamine B assay; details: SW-620, 48 h
KM12 = experiment: Cytotoxicity against Homo sapiens (human) KM12 cells after 48 hr by sulforhodamine B assay; details: KM12, 48 h
HT-29 = experiment: Cytotoxicity against Homo sapiens (human) HT-29 cells after 48 hr by sulforhodamine B assay; details: HT-29, 48 h
HCT-116 = experiment: Cytotoxicity against Homo sapiens (human) HCT116 cells after 48 hr by sulforhodamine B assay; details: HCT-116, 48 h
HCC 2998 = experiment: Cytotoxicity against Homo sapiens (human) HCC2998 cells after 48 hr by sulforhodamine B assay; details: HCC 2998, 48 h
COLO 205 = experiment: Cytotoxicity against Homo sapiens (human) COLO205 cells after 48 hr by sulforhodamine B assay; details: COLO 205, 48 h
NCI-H460 = experiment: Cytotoxicity against Homo sapiens (human) NCI-H460 cells after 48 hr by sulforhodamine B assay; details: NCI-H460, 48 h
NCI-H322M = experiment: Cytotoxicity against Homo sapiens (human) NCI-H322M cells after 48 hr by sulforhodamine B assay
HOP-62 = experiment: Cytotoxicity against Homo sapiens (human) HOP62 cells after 48 hr by sulforhodamine B assay; details: HOP-62, 48 h
EKVX = experiment: Cytotoxicity against Homo sapiens (human) EKVX cells after 48 hr by sulforhodamine B assay
RPMI-8226 = experiment: Cytotoxicity against Homo sapiens (human) RPMI8226 cells after 48 hr by sulforhodamine B assay; details: RPMI-8226, 48 h
MOLT-4 = experiment: Cytotoxicity against Homo sapiens (human) MOLT4 cells after 48 hr by sulforhodamine B assay; details: MOLT-4, 48 h
SF-268 = experiment: Cytotoxicity against Homo sapiens (human) SF268 cells assessed as cell growth at 10^-4 M after 48 hr by […] assay; details: SF-268, 48 h, read-out: Activity
[1] = read-out: LC50 (the source's name)

## ClCc1ccccc1Cn1cnc2nc(Cl)nc(Cl)c21
SK-OV-3
  GI50: 5.88 µM
  LC50: 56.2 µM
  TGI: 20.9 µM
OVCAR-5
  GI50: 2690 nM
  TGI: 5.75 µM
OVCAR-5; [1]
  CC50: 28.8 µM
OVCAR-4
  GI50: 2130 nM
  LC50 (concentration killing 50% of cells): > 100 µM
  TGI: 5.12 µM
IGROV-1
  GI50: 2880 nM
  LC50: 9.54 µM
  TGI: 5.24 µM
OVCAR-3
  GI50: 14.1 µM
  LC50: 53.7 µM
  TGI: 27.5 µM
SK-MEL-5
  GI50: 740 nM
  LC50: 5.49 µM
  TGI: 2180 nM
SK-MEL-2
  GI50: 2750 nM
  LC50 (concentration killing 50% of cells): > 100 µM
  TGI: 5.75 µM
SNB-75
  GI50: 1900 nM
  TGI: 4.46 µM
SNB-75; [1]
  CC50: > 100 µM
T47D
  GI50: 580 nM
  LC50: > 100 µM
  TGI: 5.24 µM
MDA-MB-435
  GI50: 16.6 µM
  LC50: 58.9 µM
  TGI: 30.9 µM
Hs-578T
  GI50: 670 nM
  LC50: > 100 µM
  TGI: 2570 nM
MDA-MB-231
  GI50: 300 nM
  LC50: 3.23 µM
  TGI: 910 nM
DU-145
  LC50: 7.24 µM
MCF7
  GI50: 1040 nM
  LC50 (concentration killing 50% of cells): > 100 µM
  TGI: 2570 nM
PC-3
  GI50: 750 nM
  TGI: 2570 nM
TK-10
  GI50: 19.5 µM
  TGI: 33.9 µM
TK-10; [1]
  CC50: 60.2 µM
RXF 393
  GI50: 1 nM
  TGI: 1900 nM
RXF 393; [1]
  CC50: 6.45 µM
SF-295
  GI50: 19.9 µM
  TGI: 35.5 µM
SF-295; [1]
  CC50: 61.6 µM
SW-620
  GI50: 260 nM
  TGI: 670 nM
SW-620; [1]
  CC50: 4.67 µM
KM12
  GI50: 11.7 µM
  TGI: 25.7 µM
KM12; [1]
  CC50: 56.2 µM
HT-29
  GI50: 400 nM
  TGI: > 100 µM
HT-29; [1]
  CC50: > 100 µM
HCT-116
  GI50: 1860 nM
  TGI: 4.07 µM
HCC 2998
  GI50: 18.6 µM
  TGI: 35.5 µM
HCC 2998; [1]
  CC50: 66.1 µM
COLO 205
  GI50: 350 nM
  TGI: > 100 µM
COLO 205; [1]
  CC50: > 100 µM
NCI-H460
  GI50: 2390 nM
  TGI: 5.88 µM
NCI-H460; [1]
  CC50: > 100 µM
NCI-H322M
  GI50: 4.26 µM
  TGI: 14.5 µM
NCI-H322M; [1]
  CC50: 39.8 µM
HOP-62
  GI50: 2690 nM
  TGI: 5.49 µM
HOP-62; [1]
  CC50: 16.6 µM
EKVX
  GI50: 1730 nM
  TGI: 3.23 µM
EKVX; [1]
  CC50: 6.02 µM
RPMI-8226
  GI50: 210 nM
  TGI: 630 nM
MOLT-4
  GI50: 1340 nM
  TGI: 3.23 µM
MOLT-4; [1]
  CC50: 7.94 µM
SF-268
  growth at 100 µM: 0%
